From patent US11053204B2, “Pyrimidinyloxy benzene derivatives as herbicides” (FMC Corporation, priority 2015, dated 2021)

Experiments:
Assay type in all cases: in vivo
[1] = test system: Italian ryegrass (Lolium multiflorum); assay: Test A postemergence, visual injury rating; conditions: Lolium multiflorum, post-emergence, 240 h, 0 is no effect, 100 is complete control, read-out: Ryegrass, Italian plant response rating (0 to 100 scale)
Method in brief: (§1)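 Compounds in non-phytotoxic solvent with surfactant applied as soil spray preemergence, or postemergence to plants 2-10 cm at one- to two-leaf stage, in loam/sand. After approximately 10 days in greenhouse, injury rated visually versus untreated controls, 0 (no effect) to 100 (complete control).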

[2] = test system: barnyardgrass (Echinochloa crus-galli); assay: Test A postemergence, visual injury rating; conditions: Echinochloa crus-galli, post-emergence, 240 h, 0 is no effect, 100 is complete control, read-out: Barnyardgrass plant response rating (0 to 100 scale)
Method in brief: as §1

[3] = test system: blackgrass (Alopecurus myosuroides); assay: Test A postemergence, visual injury rating; conditions: Alopecurus myosuroides, post-emergence, 240 h, 0 is no effect, 100 is complete control, read-out: Blackgrass plant response rating (0 to 100 scale)
Method in brief: as §1

corn (Zea mays) = assay: Test A postemergence, visual injury rating; conditions: Zea mays, post-emergence, 240 h, 0 is no effect, 100 is complete control, read-out: Corn plant response rating (0 to 100 scale)
Method in brief: as §1

[4] = test system: galium (catchweed bedstraw, Galium aparine); assay: Test A postemergence, visual injury rating; conditions: Galium, post-emergence, 240 h, 0 is no effect, 100 is complete control, read-out: Galium plant response rating (0 to 100 scale)
Method in brief: as §1

[5] = test system: giant foxtail (Setaria faberii); assay: Test A postemergence, visual injury rating; conditions: Setaria faberi, post-emergence, 240 h, 0 is no effect, 100 is complete control, read-out: Foxtail, Giant plant response rating (0 to 100 scale)
Method in brief: as §1

kochia (Kochia scoparia) = assay: Test A postemergence, visual injury rating; conditions: Bassia scoparia, post-emergence, 240 h, 0 is no effect, 100 is complete control, read-out: Kochia plant response rating (0 to 100 scale)
Method in brief: as §1

[6] = test system: pigweed (Amaranthus retroflexus); assay: Test A postemergence, visual injury rating; conditions: Amaranthus retroflexus, post-emergence, 240 h, 0 is no effect, 100 is complete control, read-out: Pigweed plant response rating (0 to 100 scale)
Method in brief: as §1

[7] = test system: ragweed (common ragweed, Ambrosia elatior); assay: Test A postemergence, visual injury rating; conditions: Ambrosia artemisiifolia, post-emergence, 240 h, 0 is no effect, 100 is complete control, read-out: Ragweed plant response rating (0 to 100 scale)
Method in brief: as §1

[8] = test system: wheat (Triticum aestivum); assay: Test A postemergence, visual injury rating; conditions: Triticum aestivum, post-emergence, 240 h, 0 is no effect, 100 is complete control, read-out: Wheat plant response rating (0 to 100 scale)
Method in brief: as §1

[9] = test system: chickweed (common chickweed, Stellaria media); assay: Test C postemergence, plant response rating; conditions: Stellaria media, post-emergence
Method in brief: (§2)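 Pre-emergence: seeds sown in loam soil–sand blend or silt loam and sprayed with test chemicals in a non-phytotoxic solvent mixture with surfactant. Post-emergence: plants 2 to 18 cm (1- to 4-leaf stage) in peat-based potting medium, same formulation. Greenhouse 13 to 15 d; visual rating 0 (no effect) to 100 (complete control) versus controls.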

[10] = test system: foxtail, giant (giant foxtail, Setaria faberii); assay: Test C postemergence, plant response rating; conditions: Setaria faberi, post-emergence
Method in brief: as §2

[11] = test system: lambsquarters (Chenopodium album); assay: Test C postemergence, plant response rating; conditions: Chenopodium album, post-emergence
Method in brief: as §2

[12] = test system: oat, wild (wild oat Avena fatua); assay: Test C postemergence, plant response rating; conditions: Avena fatua, post-emergence
Method in brief: as §2

[13] = test system: ragweed (common ragweed, Ambrosia elatior); assay: Test C postemergence, plant response rating; conditions: Ambrosia artemisiifolia, post-emergence
Method in brief: as §2

[14] = test system: ryegrass, Italian (Italian ryegrass, Lolium multiflorum); assay: Test C postemergence, plant response rating; conditions: Lolium multiflorum, post-emergence
Method in brief: as §2

soybean (Glycine max) = assay: Test C postemergence, plant response rating; conditions: Glycine max, post-emergence
Method in brief: as §2

[15] = test system: velvetleaf (Abutilon theophrasti); assay: Test C postemergence, plant response rating; conditions: Abutilon theophrasti, post-emergence
Method in brief: as §2

[16] = test system: waterhemp (common waterhemp, Amaranthus rudis); assay: Test C postemergence, plant response rating; conditions: for Plant response rating, Waterhemp: scale 0 to 100; for Waterhemp plant response rating: scale 0 to 100 (0 no effect, 100 complete control)
Method in brief: as §2

[17] = 62 g ai/ha, scale 0 to 100 (0 no effect, 100 complete control)
[18] = 125 g ai/ha, scale 0 to 100 (0 no effect, 100 complete control)

`C=CCCOC(=O)c1c(Br)cccc1Oc1ncc(Cl)cn1` [Compound 21, 3-buten-1-yl 2-bromo-6-[(5-chloro-2-pyrimidinyl)oxy]benzoate] was tested, and the pest or weed control at 125 g/ha ([1]; 125 g ai/ha) was 0%, the pest or weed control at 500 g/ha ([1]; 500 g ai/ha) was 90% and the pest or weed control at 125 g/ha ([2]; 125 g ai/ha) was 70%. For the same molecule, the pest or weed control at 500 g/ha ([2]; 500 g ai/ha) was 100%, the pest or weed control at 125 g/ha ([3]; 125 g ai/ha) was 60% and the pest or weed control at 500 g/ha ([3]; 500 g ai/ha) was 80%. For the same molecule, the plant injury at 125 g/ha (corn (Zea mays); 125 g ai/ha) was 30%, the plant injury at 500 g/ha (corn (Zea mays); 500 g ai/ha) was 60% and the pest or weed control at 125 g/ha ([4]; 125 g ai/ha) was 80%. The pest or weed control at 500 g/ha ([4]; 500 g ai/ha) was 90%, the pest or weed control at 125 g/ha ([5]; 125 g ai/ha) was 70% and the pest or weed control at 500 g/ha ([5]; 500 g ai/ha) was 100%. It also gave a pest or weed control at 125 g/ha (kochia (Kochia scoparia); 125 g ai/ha) of 90%, a pest or weed control at 500 g/ha (kochia (Kochia scoparia); 500 g ai/ha) of 100% and a pest or weed control at 125 g/ha ([6]; 125 g ai/ha) of 80%. For the same molecule, the pest or weed control at 500 g/ha ([6]; 500 g ai/ha) was 100%, the pest or weed control at 125 g/ha ([7]; 125 g ai/ha) was 0% and the pest or weed control at 500 g/ha ([7]; 500 g ai/ha) was 40%. It also gave a plant injury at 125 g/ha ([8]; 125 g ai/ha) of 0%, a plant injury at 500 g/ha ([8]; 500 g ai/ha) of 40% and a pest or weed control at 16 g/ha ([9]; 16 g ai/ha, scale 0 to 100) of 40%. The pest or weed control at 31 g/ha ([9]; 31 g ai/ha, scale 0 to 100) was 50%, the pest or weed control at 62 g/ha [9, 17] was 50% and the pest or weed control at 125 g/ha [9, 18] was 80%. It also gave a pest or weed control at 16 g/ha ([10]; 16 g ai/ha, scale 0 to 100) of 10%, a pest or weed control at 31 g/ha ([10]; 31 g ai/ha, scale 0 to 100) of 10% and a pest or weed control at 62 g/ha [10, 17] of 20%. The pest or weed control at 125 g/ha [10, 18] was 15%, the pest or weed control at 16 g/ha ([11]; 16 g ai/ha, scale 0 to 100) was 65% and the pest or weed control at 31 g/ha ([11]; 31 g ai/ha, scale 0 to 100) was 60%. The pest or weed control at 62 g/ha [11, 17] was 65%, the pest or weed control at 125 g/ha [11, 18] was 85% and the pest or weed control at 16 g/ha ([12]; 16 g ai/ha, scale 0 to 100) was 0%. For the same molecule, the pest or weed control at 31 g/ha ([12]; 31 g ai/ha, scale 0 to 100) was 0%, the pest or weed control at 62 g/ha [12, 17] was 5% and the pest or weed control at 125 g/ha [12, 18] was 5%. It also gave a pest or weed control at 16 g/ha ([13]; 16 g ai/ha, scale 0 to 100) of 10%, a pest or weed control at 31 g/ha ([13]; 31 g ai/ha, scale 0 to 100) of 10% and a pest or weed control at 62 g/ha [13, 17] of 45%. For the same molecule, the pest or weed control at 125 g/ha [13, 18] was 55%, the pest or weed control at 16 g/ha ([14]; 16 g ai/ha, scale 0 to 100) was 0% and the pest or weed control at 31 g/ha ([14]; 31 g ai/ha, scale 0 to 100) was 0%. For the same molecule, the pest or weed control at 62 g/ha [14, 17] was 0%, the pest or weed control at 125 g/ha [14, 18] was 15% and the plant injury at 16 g/ha (soybean (Glycine max); 16 g ai/ha, scale 0 to 100) was 30%. The plant injury at 31 g/ha (soybean (Glycine max); 31 g ai/ha, scale 0 to 100) was 40%, the plant injury at 62 g/ha (soybean (Glycine max); [17]) was 60% and the plant injury at 125 g/ha (soybean (Glycine max); [18]) was 60%. For the same molecule, the pest or weed control at 16 g/ha ([15]; 16 g ai/ha, scale 0 to 100) was 40%, the pest or weed control at 31 g/ha ([15]; 31 g ai/ha, scale 0 to 100) was 60% and the pest or weed control at 62 g/ha ([15]; 62 g ai/ha, scale 0 to 100 (0 no effect, 100 complete control), read-out: Velvetleaf plant response rating) was 60%. The pest or weed control at 125 g/ha [15, 18] was 70%, the “Plant response rating, Waterhemp” value ([16]; 16 g ai/ha) was 75 and the “Plant response rating, Waterhemp” value ([16]; 31 g ai/ha) was 85. The “Waterhemp plant response rating” value ([16]; 62 g ai/ha) was 90 and the “Waterhemp plant response rating” value ([16]; 125 g ai/ha) was 85.
